In patent publication US9242937B2, “Pharmaceutically active disubstituted pyridine derivatives” (Bayer Intellectual Property GmbH, priority 2011, dated 2016):

System: cellular CDK9 activity (RNA Polymerase II Ser2 phosphorylation) in HCT-116 cells
Assay: RNA-Polymerase II Ser2 cellular phosphorylation assay
Type: cell-based
Conditions: Homo sapiens, 72 h, normalized with tubulin, read-out: RNA Polymerase II Ser2 Phosphorylation (activity range), IC50
Protocol: HCT-116 cells (DSMZ, Braunschweig, Germany) were maintained in Mc Coy's cell culture medium+glutamine (PAN Biotech GmbH, Aidenbach, Germany) supplemented with 10% fetal calf serum (PAA Laboratories GmbH, Pasching, Austria) and grown at 37° C., 5% CO2. For the cellular phosphorylation assay, cells were seeded with 2×10^5 cells/well/1 ml in 24-well plates (Greiner Bio One, Frickenhausen, Germany; catalog #662160). The compounds of general formula (I) summarized in Table 6 were diluted from a 10 mM DMSO stock solution 1:10 in a total volume of 15 μL DMSO. After overnight incubation at 37° C./5% CO2, 1.5 μL of a compound diluted in DMSO was added to each sample well. Wells with cells and 0.15% DMSO in culture medium were used as positive controls, wells without cells and 0.15% DMSO in culture medium were used as negative controls. The cells were incubated with the compounds for 72 h at 37° C./5% CO2. […] Phosphorylation of RNA Polymerase II Ser2 and tubulin levels for normalization were analyzed afterwards with the Multi-Array technology (Meso Scale Discovery, Gaithersburg, Md., USA), a combination of antibody coupled electrochemiluminescence detection and patterned arrays. […] Finally, plates were washed three times with Tris Wash Buffer, 150 μl 2× Read Buffer (Meso Scale Discovery) were added per well and plates were analyzed immediately in a Sector Imager from Meso Scale Discovery. […]

With `COc1ccccc1-c1ccnc(Nc2cccc(S(N)(=O)=O)c2)c1` [Compound D1, 3-[(4-(2-Methoxyphenyl)pyridin-2-yl)amino]benzenesulfonamide] the IC50 was 1 to 10 µM.
